According to article PMC8247773, “Benzohydrazide and Phenylacetamide Scaffolds: New Putative ParE Inhibitors” (Frontiers in Bioengineering and Biotechnology, 2021):
Converted amounts (≈) assume the structure as drawn.

What was measured:
[1] = test system: Escherichia coli (NCIM 2065); assay: Antibacterial susceptibility test, microbroth dilution MIC; assay type: cell-based; settings: E. Coli (NCIM 2065); mean ± SD
MRSA (NCIM 5021) [2] = assay: as above; assay type: cell-based, methicillin-resistant Staphylococcus aureus; settings: mean ± SD
MRSA (ATCC43300) [3] = assay: as above; assay type: cell-based, methicillin-resistant Staphylococcus aureus; settings: mean ± SD
[4] = test system: Escherichia coli (NCIM 2065); assay: Minimum bactericidal concentration (MBC); assay type: cell-based; settings: E. Coli (NCIM 2065); for MBC/MIC: ratio ≤2 bactericidal, ≥4 tolerance
Protocol: (§1) MBC can be defined as the minimum concentration of a compound required to kill the bacteria over a fixed period under precise conditions. […] Colonies were counted, and colony forming unit (CFU) per milliliter was calculated.

MRSA (NCIM 5021) [5] = assay: Minimum bactericidal concentration (MBC); assay type: cell-based, methicillin-resistant Staphylococcus aureus
Protocol: as §1

E. coli ParE enzyme = target: T1, E. coli ParE enzyme (Escherichia coli, UniProt P20083); assay: E. coli ParE ATPase enzyme inhibition assay (ProFoldin kit, malachite green); assay type: biochemical; settings: ATPase activity, mean ± SD (n = 3)
T1 construct: purchased ProFoldin, Hudson, United States
Protocol: The assay was performed as per the standard protocol provided by the ProFoldin. […] ParE hydrolyzes ATP as the source of molecular energy to perform decatenation reactions. Fluoroquinolones and aminocoumarins usually block ATPase activity to hinder the biological activities of topoisomerase II. Thus, the topoisomerase ATPase assay can be used for high-throughput screening of topoisomerase inhibitors. The ATPase activity of the E. coli ParE enzyme was based on the detection of inorganic phosphate produced by the hydrolysis of ATP in the presence of DNA. The phosphate is detected using a microplate reader at an absorbance wavelength of 650 nm. The selected compounds were tested for the inhibition of ATPase activity of ParE enzyme. […] The reaction mixture was incubated for 1 h at 37°C and then quenched with 45 μL of Dye. Incubate for 5 min, and the absorbance was measured at 650 nm. The IC50 values were determined from the absorbance readings using no enzyme and no compound controls. They were calculated using the non-linear regression curve fit method.

[6] = test system: Klebsiella pneumonia (NCIM 2706); set-up: method as in Yele et al., 2020, 2021; settings: ref Yele et al., 2020, 2021; cited from earlier work
[7] = test system: Pseudomonas aeruginosa (NCIM 2036); set-up: method as in Yele et al., 2020, 2021; settings: ref Yele et al., 2020, 2021; cited from earlier work
[8] = test system: Escherichia coli (NCIM 2567); set-up: method as in Yele et al., 2020, 2021; settings: ref Yele et al., 2020, 2021; cited from earlier work
[9] = test system: Staphylococcus epidermis (NCIM 2493); set-up: method as in Yele et al., 2020, 2021; settings: ref Yele et al., 2020, 2021; cited from earlier work
[10] = test system: Staphylococcus aureus (NCIM 5022); set-up: method as in Yele et al., 2020, 2021; settings: ref Yele et al., 2020, 2021; cited from earlier work
[11] = test system: Bacillus subtilis (NCIM 2545); set-up: method as in Yele et al., 2020, 2021; settings: ref Yele et al., 2020, 2021; cited from earlier work
[12] = test system: Mycobacterium tuberculosis (NCIM 2984); set-up: method as in Yele et al., 2020, 2021; settings: ref Yele et al., 2020, 2021; cited from earlier work
MRSA (ATCC43300) [13] = assay: Minimum bactericidal concentration (MBC); assay type: cell-based, methicillin-resistant Staphylococcus aureus
Protocol: as §1

E. coli = assay: Checkerboard synergy with FDA approved drugs; assay type: cell-based, Escherichia coli
[14] = FIC of compound 5 in combination
[15] = FIC of compound 21 in combination with the row's drug
[16] = FIC of the drug in combination with compound 5
[17] = FIC of the drug in combination with compound 21

T1 sequence (P20083 whole entry): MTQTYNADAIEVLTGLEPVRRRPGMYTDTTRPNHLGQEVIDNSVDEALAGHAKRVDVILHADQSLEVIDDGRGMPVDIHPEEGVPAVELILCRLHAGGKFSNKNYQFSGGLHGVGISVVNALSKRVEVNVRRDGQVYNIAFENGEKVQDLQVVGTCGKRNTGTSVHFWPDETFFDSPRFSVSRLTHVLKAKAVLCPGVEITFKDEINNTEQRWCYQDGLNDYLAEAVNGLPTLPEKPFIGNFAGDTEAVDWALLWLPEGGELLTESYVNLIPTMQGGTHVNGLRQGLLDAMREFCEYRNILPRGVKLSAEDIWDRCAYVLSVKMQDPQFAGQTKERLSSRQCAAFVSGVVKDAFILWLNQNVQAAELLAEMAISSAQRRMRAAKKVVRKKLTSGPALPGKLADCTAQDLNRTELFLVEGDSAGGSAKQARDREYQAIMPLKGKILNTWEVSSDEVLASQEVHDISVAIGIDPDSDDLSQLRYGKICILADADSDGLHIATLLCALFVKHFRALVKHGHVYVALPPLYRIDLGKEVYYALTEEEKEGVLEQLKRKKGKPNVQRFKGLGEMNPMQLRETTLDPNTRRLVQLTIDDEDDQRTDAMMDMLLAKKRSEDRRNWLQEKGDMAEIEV
T1 sequence (P0AFI2 whole entry, further chain): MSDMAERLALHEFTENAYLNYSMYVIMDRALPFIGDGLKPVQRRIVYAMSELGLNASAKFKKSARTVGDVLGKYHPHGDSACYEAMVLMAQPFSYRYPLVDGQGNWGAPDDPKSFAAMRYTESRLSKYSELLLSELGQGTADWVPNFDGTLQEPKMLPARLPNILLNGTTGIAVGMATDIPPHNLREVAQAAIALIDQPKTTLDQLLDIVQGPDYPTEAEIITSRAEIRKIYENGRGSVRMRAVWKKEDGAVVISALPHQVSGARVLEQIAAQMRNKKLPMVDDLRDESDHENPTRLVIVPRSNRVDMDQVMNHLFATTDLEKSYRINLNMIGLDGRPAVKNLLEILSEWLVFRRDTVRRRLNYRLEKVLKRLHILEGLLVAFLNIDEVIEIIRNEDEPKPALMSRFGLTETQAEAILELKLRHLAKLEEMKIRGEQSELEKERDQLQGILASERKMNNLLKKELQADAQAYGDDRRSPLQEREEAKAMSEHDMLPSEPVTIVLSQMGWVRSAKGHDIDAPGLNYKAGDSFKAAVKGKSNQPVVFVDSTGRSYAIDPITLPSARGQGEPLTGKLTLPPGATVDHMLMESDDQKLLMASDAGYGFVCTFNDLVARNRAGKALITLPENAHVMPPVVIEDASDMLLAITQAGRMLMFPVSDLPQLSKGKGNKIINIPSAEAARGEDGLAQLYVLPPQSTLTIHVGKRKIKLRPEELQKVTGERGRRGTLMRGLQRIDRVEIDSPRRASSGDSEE

| SMILES | Minimum inhibitory concentration [1] [µg/mL] | Minimum inhibitory concentration (MRSA (NCIM 5021) [2]) [µg/mL] | Minimum inhibitory concentration (MRSA (ATCC43300) [3]) [µg/mL] | MBC [4] [µg/mL] | MBC/MIC [4] | MBC (MRSA (NCIM 5021) [5]) [µg/mL] | MBC/MIC (MRSA (NCIM 5021) [5]) | IC50 against E. coli ParE enzyme (E. coli ParE enzyme) [µg/mL] | Minimum inhibitory concentration (MIC) K. p [6] | Minimum inhibitory concentration (MIC) P. a [7] | Minimum inhibitory concentration (MIC) E. c [8] | Minimum inhibitory concentration (MIC) S. e [9] | Minimum inhibitory concentration (MIC) S. a [10] | Minimum inhibitory concentration (MIC) B. s [11] | Minimum inhibitory concentration (MIC) M. t [12] | MBC (MRSA (ATCC43300) [13]) [µg/mL] | MBC/MIC (MRSA (ATCC43300) [13]) | other results |
| --- | --- | --- | --- | --- | --- | --- | --- | --- | --- | --- | --- | --- | --- | --- | --- | --- | --- | --- |
| COc1ccc(OCC(=O)Nc2ccc(Cl)cc2)cc1 [Compound 28] | 1.88 ± 0.11 (≈ 6.44 µM) | 2.70 ± 0.22 (≈ 9.26 µM) | 2.04 ± 0.16 (≈ 6.99 µM) | 3.85 ± 0.25 (≈ 13.2 µM) | 2 | 10.62 ± 0.44 (≈ 36.4 µM) | 4 | 1.93 (≈ 6.62 µM) | 1.98 | 5.55 | 0.88 | 0.71 | 1.21 | 2.04 | 1.47 | – | – | – |
| COc1ccc(OCC(=O)Nc2ccc(C(=O)O)cc2)cc1 [Compound 27] | 1.59 ± 0.38 (≈ 5.28 µM) | 1.71 ± 0.24 (≈ 5.68 µM) | 1.06 ± 0.14 (≈ 3.52 µM) | 1.59 ± 0.38 (≈ 5.28 µM) | 1 | 3.55 ± 0.07 (≈ 11.8 µM) | 2 | 1.30 (≈ 4.31 µM) | 1.40 | 2.21 | 0.98 | 0.94 | 0.94 | 3.06 | 0.79 | 1.06 ± 0.14 (≈ 3.52 µM) | 1 | – |
| O=C(COc1ccccc1NC(=O)CCl)Nc1cc(Cl)c(Cl)cc1Cl [Compound 11] | 0.97 ± 0.01 (≈ 2.3 µM) | 1.79 ± 0.16 (≈ 4.24 µM) | 0.84 ± 0.05 (≈ 1.99 µM) | 0.97 ± 0.01 (≈ 2.3 µM) | 1 | 7.18 ± 0.15 (≈ 17 µM) | 4 | 1.81 (≈ 4.29 µM) | 4.43 | 9.33 | 7.98 | 1.33 | 0.68 | 0.94 | 4.71 | 0.84 ± 0.05 (≈ 1.99 µM) | 1 | – |
| CO[C@H]1/C=C/O[C@@]2(C)Oc3c(C)c(O)c4c(O)c(c(/C=N/N5CCN(C)CC5)c(O)c4c3C2=O)NC(=O)/C(C)=C\C=C\[C@H](C)[C@H](O)[C@@H](C)[C@@H](O)[C@@H](C)[C@H](OC(C)=O)[C@@H]1C [Rifampicin] | – | – | – | – | – | – | – | – | – | – | – | – | – | – | – | – | – | FIC A (E. coli; [14]): 0.1202; FIC A (E. coli; [15]): 0.1942; FIC B (E. coli; [16]): 0.0524; FIC B (E. coli; [17]): 0.1281; Inference (E. coli; drug combined with compound 5): Synergistic (synergistic when the ΣFICs is ≤ 0.5); ΣFIC A + FIC B (E. coli; drug combined with compound 5): 0.1726; Inference (E. coli; drug combined with compound 21): Synergistic (synergistic when the ΣFICs is ≤ 0.5); ΣFIC A + FIC B (E. coli; drug combined with compound 21): 0.3223 |
| O=C(COc1ccccc1NC(=O)CCl)NNC(=O)c1ccccc1Cl [Compound 15] | 0.98 ± 0.07 (≈ 2.47 µM) | 5.60 ± 0.36 (≈ 14.1 µM) | 1.51 ± 0.49 (≈ 3.81 µM) | – | – | – | – | 1.33 (≈ 3.36 µM) | 1.89 | 1.45 | 1.63 | 0.64 | 0.62 | 0.67 | 3.52 | 3.18 ± 0.32 (≈ 8.03 µM) | 2 | – |
| Cc1ccc(S(=O)(=O)NC(=O)COc2ccccc2NC(=O)CCl)cc1 [Compound 18] | 1.42 ± 0.23 (≈ 3.58 µM) | 1.81 ± 0.40 (≈ 4.56 µM) | 1.74 ± 0.21 (≈ 4.38 µM) | 1.42 ± 0.23 (≈ 3.58 µM) | 1 | 1.81 ± 0.40 (≈ 4.56 µM) | 1 | 1.81 (≈ 4.56 µM) | 5.25 | 4.67 | 5.20 | 3.96 | 2.48 | 3.52 | 4.62 | 3.74 ± 0.16 (≈ 9.42 µM) | 2 | – |
| O=C(COc1ccccc1NC(=O)CCl)Nc1ccc(S(=O)(=O)O)cc1 [Compound 6] | 1.56 ± 0.30 (≈ 3.91 µM) | 1.86 ± 0.10 (≈ 4.66 µM) | 1.71 ± 0.21 (≈ 4.29 µM) | 3.7 ± 0.12 (≈ 9.28 µM) | 3 | 7.39 ± 0.18 (≈ 18.5 µM) | 4 | 1.19 (≈ 2.98 µM) | 0.78 | 0.64 | 0.86 | 7.89 | 5.23 | 3.56 | 15.23 | 4.56 ± 0.08 (≈ 11.4 µM) | 3 | – |
| COc1ccc(C(=O)NNC(=O)COc2ccccc2NC(=O)CCl)cc1 [Compound 13] | 2.60 ± 0.26 (≈ 6.64 µM) | 8.36 ± 0.30 (≈ 21.3 µM) | 2.47 ± 0.46 (≈ 6.3 µM) | 9.43 ± 0.11 (≈ 24.1 µM) | 4 | – | – | 2.73 (≈ 6.97 µM) | 0.89 | 1.25 | 1.92 | 4.15 | 3.28 | 7.10 | 1.33 | – | – | – |
| O=C(COc1ccccc1NC(=O)CCl)NNC(=O)c1ccncc1 [Compound 16] | 2.60 ± 0.28 (≈ 7.17 µM) | 5.65 ± 0.27 (≈ 15.6 µM) | 2.74 ± 0.19 (≈ 7.55 µM) | 9.12 ± 0.11 (≈ 25.1 µM) | 4 | – | – | 2.62 (≈ 7.22 µM) | 2.56 | 3.23 | 2.12 | 7.24 | 8.99 | 11.59 | 1.79 | – | – | – |
| C[C@H]1c2cccc(O)c2C(=O)C2=C(O)[C@]3(O)C(=O)C(C(N)=O)=C(O)[C@@H](N(C)C)[C@@H]3[C@@H](O)[C@@H]21 [Doxycycline] | – | – | – | – | – | – | – | – | – | – | – | – | – | – | – | – | – | FIC A (E. coli; [14]): 0.0702; FIC A (E. coli; [15]): 0.1813; FIC B (E. coli; [16]): 0.0273; FIC B (E. coli; [17]): 0.0262; Inference (E. coli; drug combined with compound 5): Synergistic (synergistic when the ΣFICs is ≤ 0.5); ΣFIC A + FIC B (E. coli; drug combined with compound 5): 0.0975; Inference (E. coli; drug combined with compound 21): Synergistic (synergistic when the ΣFICs is ≤ 0.5); ΣFIC A + FIC B (E. coli; drug combined with compound 21): 0.2075 |
| O=C(COc1ccccc1NC(=O)CCl)Nc1cccc(Cl)c1 [Compound 10] | 0.83 ± 0.05 (≈ 2.35 µM) | 0.82 ± 0.03 (≈ 2.32 µM) | 0.88 ± 0.10 (≈ 2.49 µM) | 0.83 ± 0.05 (≈ 2.35 µM) | 1 | 0.82 ± 0.03 (≈ 2.32 µM) | 1 | 1.84 (≈ 5.21 µM) | 14.70 | 10.81 | 7.07 | 1.95 | 0.92 | 1.97 | 5.26 | 0.88 ± 0.10 (≈ 2.49 µM) | 1 | – |
